Like-named read-outs stand apart in the source and are kept apart here.
Key:
[1] = target: T1, Recombinant human PI3Kγ (full length human PI3K p110γ) (Homo sapiens, UniProt P48736); test: Kinase assay of PI3Kγ (solid-phase lipid kinase assay); assay type: biochemical
T1 construct: full length human PI3K p110γ fused with a His6-tag at the C-terminus; His6 (C); purchased ALEXIS BIOCHEMICALS #201-055-C010; host or cells: S. frugiperda 9 insect cells

[2] = in vitro PI3K-γ inhibitory activity, class symbols A-D, read-out: in vitro PI3K-gamma
[3] = in vitro PI3K-γ inhibitory activity, class symbols, read-out: in vitro PI3K-gamma
[4] = Table 1, isozyme not given, read-out: in vitro

T1 sequence (P48736 whole entry, the tested form may be a part): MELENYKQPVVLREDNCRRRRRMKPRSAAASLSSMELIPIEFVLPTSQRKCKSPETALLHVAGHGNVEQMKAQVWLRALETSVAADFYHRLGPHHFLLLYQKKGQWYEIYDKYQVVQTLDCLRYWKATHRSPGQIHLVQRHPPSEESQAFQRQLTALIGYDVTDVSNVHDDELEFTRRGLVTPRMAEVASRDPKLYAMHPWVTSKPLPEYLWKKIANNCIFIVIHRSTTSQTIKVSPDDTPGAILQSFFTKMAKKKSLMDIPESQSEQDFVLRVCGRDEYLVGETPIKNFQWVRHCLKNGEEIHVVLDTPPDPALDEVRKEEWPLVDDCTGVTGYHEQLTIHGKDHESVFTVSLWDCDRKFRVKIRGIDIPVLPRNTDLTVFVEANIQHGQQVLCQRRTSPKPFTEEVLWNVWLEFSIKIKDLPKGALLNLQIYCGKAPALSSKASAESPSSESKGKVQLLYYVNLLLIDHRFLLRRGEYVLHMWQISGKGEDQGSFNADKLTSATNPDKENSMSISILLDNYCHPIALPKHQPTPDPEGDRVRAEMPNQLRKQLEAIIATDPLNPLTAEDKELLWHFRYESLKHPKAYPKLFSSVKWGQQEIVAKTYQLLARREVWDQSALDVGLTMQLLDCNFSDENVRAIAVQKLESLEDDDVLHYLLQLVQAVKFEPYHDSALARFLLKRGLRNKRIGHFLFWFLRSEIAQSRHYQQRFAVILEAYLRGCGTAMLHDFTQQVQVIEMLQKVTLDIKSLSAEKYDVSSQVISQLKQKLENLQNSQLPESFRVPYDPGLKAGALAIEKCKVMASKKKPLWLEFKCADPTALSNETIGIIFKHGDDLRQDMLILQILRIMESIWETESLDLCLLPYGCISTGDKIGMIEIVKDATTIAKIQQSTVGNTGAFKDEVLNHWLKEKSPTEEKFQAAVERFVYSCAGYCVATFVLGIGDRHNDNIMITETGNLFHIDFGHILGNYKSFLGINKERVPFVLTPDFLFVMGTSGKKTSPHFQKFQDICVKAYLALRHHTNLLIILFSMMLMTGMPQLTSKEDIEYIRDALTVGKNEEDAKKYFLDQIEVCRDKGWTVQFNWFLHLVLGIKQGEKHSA

| IC50 [1, 2] [nM] | melting point | IC50 [1, 3] [nM] | IC50 [1, 4] [nM] | Structure (SMILES) |
| --- | --- | --- | --- | --- |
| 500 to 2000 | 350 °C (dec.) | – | – | O=C(NC1=Nc2ccccc2C2=NCCN12)c1ccco1 [Example 2-298] |
| – | 220 °C | < 100 | – | Cc1cc(Br)c2c(c1)C1=NCCN1C(NC(=O)c1cccnc1)=N2.Cl [Example 2-74] |
| – | 233 to 234 °C | – | < 100 | COc1c(OCC2CCCCO2)ccc2c1N=C(/C=C(\O)c1cccnc1)N1CCN=C21 (stereo not shown) [Example 1-194] |
| – | 340 °C (dec.) | 100 to 500 | – | Cl.O=C(NC1=Nc2ccccc2C2=NCCN12)c1cccnc1Cl [Example 2-135] |
| – | 270 °C (dec.) | – | < 100 | COc1ccc2c(c1OC)N=C(/C=C(\O)c1ccc(NC(C)=O)nc1)N1CCN=C21 [Example 1-12] |
| – | 207 °C | – | 100 to 500 | COc1cc2c(cc1OC)C1=NCCN1C(/C=C(\O)c1ccc(NCCO)nc1)=N2 [Example 1-54] |
| – | 199 °C (dec.) | 100 to 500 | – | Cc1ncccc1C(=O)NC1=Nc2cc(N3CCOCC3)ccc2C2=NCCN12 [Example 2-12] |
| > 2000 | 303 to 305 °C | – | – | O=C(NC1=Nc2ccccc2C2=NCCN12)c1ccc2ncsc2c1 [Example 2-312] |
| 500 to 2000 | 224 to 225 °C | – | – | O=C(NC1=Nc2ccccc2C2=NCCN12)c1ccncc1 [Example 2-278] |
| – | > 290 °C | 100 to 500 | – | Cc1ccc2c(c1)C1=NCCN1C(NC(=O)c1cccnc1)=N2.Cl [Example 2-91] |
| – | 285 °C (dec.) | < 100 | – | COc1cccc2c1N=C(NC(=O)c1cncc(O)c1)N1CCN=C21.Cl [Example 2-122] |
| – | > 300 °C | < 100 | – | O=C(NC1=Nc2c(F)cccc2C2=NCCN12)c1ccc2[nH]cnc2c1 [Example 2-101] |
| 100 to 500 | 232 to 236 °C (dec.) | – | – | O=C(NC1=Nc2cc(OCC(=O)N3CCOCC3)ccc2C2=NCCN12)c1cccnc1 [Example 2-207] |
| – | 289 °C (dec.) | < 100 | – | COc1ccc2c(c1OC)N=C(NC(=O)c1ccc3[nH]cnc3c1)N1CCN=C21 [Example 2-49] |
| – | 320 °C (dec.) | < 100 | – | CC(=O)Nc1ccc(C(=O)NC2=Nc3ccccc3C3=NCCN23)cn1 [Example 2-151] |
| – | > 300 °C | 100 to 500 | – | Cl.O=C(NC1=Nc2ccc(F)cc2C2=NCCN12)c1ccc2[nH]cnc2c1 [Example 2-83] |
| > 2000 | 119 to 120 °C | – | – | O=C(NC1=Nc2ccccc2C2=NCCN12)C1CCCCN1C(=O)OCc1ccccc1 (stereo not shown) [Example 2-337] |
| 500 to 2000 | > 250 °C | – | – | Cl.O=C(NC1=Nc2ccccc2C2=NCCN12)c1ccc(C(F)(F)F)nc1 [Example 2-281] |
| – | 250 °C | – | 100 to 500 | COc1cc2c(cc1OC)C1=NCCN1C(/C=C(\O)c1cccs1)=N2 [Example 1-58] |
| – | 271 °C | – | < 100 | CC(=O)Nc1ccc(/C(O)=C/C2=Nc3c(ccc(C)c3OCCN3CCOCC3)C3=NCCN23)cn1.Cl [Example 1-41] |
| 500 to 2000 | 311 °C (dec.) | – | – | Cl.O=C(NC1=Nc2ccccc2C2=NCCN12)c1ccco1 [Example 2-299] |
| – | 190 °C | < 100 | – | Cc1ccc2c(c1)N=C(NC(=O)c1ccc3[nH]cnc3c1)N1CCN=C21 [Example 2-29] |
| 100 to 500 | 344 °C (dec.) | – | – | Cc1nc2cc(C(=O)NC3=Nc4ccccc4C4=NCCN34)ccc2[nH]1.Cl [Example 2-308] |
| > 2000 | 219 to 220 °C | – | – | O=C(NC1=Nc2ccccc2C2=NCCN12)c1ccc(C(F)(F)F)nc1 [Example 2-280] |

| Structure (SMILES) | IC50 [1, 2] [nM] | melting point | IC50 [1, 3] [nM] | IC50 [1, 4] [nM] |
| --- | --- | --- | --- | --- |
| Nc1cccc(C(=O)NC2=Nc3ccccc3C3=NCCN23)c1.O=C(O)C(F)(F)F [Example 2-162] | – | 191 °C (dec.) | 100 to 500 | – |
| O=C(NC1=Nc2ccccc2C2=NCCN12)c1ccco1.O=C(O)C(F)(F)F [Example 2-300] | 100 to 500 | 230 to 232 °C | – | – |
